Assays:
[1] = shake flask on a mixture of 185; loss from the water phase only; LC-QTOF peak areas; conditions: room
[2] = shake flask on a mixture of 185; loss from the water phase only; LC-Orbitrap peak areas; conditions: room

SMILES | log partition 1-octanol / HPLC water, unbuffered, traces of methanol / DMSO [2] [log10] | log partition butyl acetate / HPLC water, unbuffered, traces of methanol / DMSO [2] [log10] | log partition chloroform / HPLC water, unbuffered, traces of methanol / DMSO [2] [log10] | log partition cyclohexane / HPLC water, unbuffered, traces of methanol / DMSO [2] [log10] | log partition dichloromethane / HPLC water, unbuffered, traces of methanol / DMSO [2] [log10] | log partition n-hexane / HPLC water, unbuffered, traces of methanol / DMSO [2] [log10] | log partition n-octane / HPLC water, unbuffered, traces of methanol / DMSO [2] [log10] | log partition n-undecane / HPLC water, unbuffered, traces of methanol / DMSO [2] [log10] | log partition oleylalcohol / HPLC water, unbuffered, traces of methanol / DMSO [2] [log10] | log partition toluene / HPLC water, unbuffered, traces of methanol / DMSO [2] [log10] | log partition 1-octanol / HPLC water, unbuffered, traces of methanol / DMSO [1] [log10] | log partition butyl acetate / HPLC water, unbuffered, traces of methanol / DMSO [1] [log10] | log partition chloroform / HPLC water, unbuffered, traces of methanol / DMSO [1] [log10] | log partition cyclohexane / HPLC water, unbuffered, traces of methanol / DMSO [1] [log10] | log partition dichloromethane / HPLC water, unbuffered, traces of methanol / DMSO [1] [log10] | log partition n-hexane / HPLC water, unbuffered, traces of methanol / DMSO [1] [log10] | log partition n-octane / HPLC water, unbuffered, traces of methanol / DMSO [1] [log10] | log partition n-undecane / HPLC water, unbuffered, traces of methanol / DMSO [1] [log10] | log partition oleylalcohol / HPLC water, unbuffered, traces of methanol / DMSO [1] [log10] | log partition toluene / HPLC water, unbuffered, traces of methanol / DMSO [1] [log10]
O=C(Nc1ccccc1-c1ccc(Cl)cc1)c1cccnc1Cl | 3.752 | 4.674 | 1.201 | 2.491 | 2.846 | 1.664 | 1.841 | 2.234 | 3.336 | 3.533 | 2.544 | 2.85 | 2.789 | 1.857 | 2.321 | 1.024 | 1.335 | 1.129 | 1.78 | 2.524
CCc1nn(C)c(C(=O)NCc2ccc(C(C)(C)C)cc2)c1Cl | 1.459 | 1.634 | 0.2173 | 0.942 | 3.08 | 0.5625 | 1.395 | 0.9075 | 1.51 | 1.132 | 0.9057 | 1.589 | 1.982 | 2.337 | 2.036 | 2.449 | 2.089 | 1.893 | 0.96 | 1.518
Cc1oncc1C(=O)Nc1ccc(C(F)(F)F)cc1 | 1.455 | 1.635 | 1.002 | 0.009613 | 1.347 | -0.1226 | -0.1369 | -0.387 | 1.068 | 0.7892 | 2.576 | 3.034 | 2.805 | 0.2033 | 2.511 | 0.07872 | 0.112 | 0.08618 | 2.816 | 2.381

Now from value to compound, other results behind:

log partition 1-octanol / HPLC water, unbuffered, traces of methanol / DMSO [2] [log10] | log partition butyl acetate / HPLC water, unbuffered, traces of methanol / DMSO [2] [log10] | log partition chloroform / HPLC water, unbuffered, traces of methanol / DMSO [2] [log10] | log partition cyclohexane / HPLC water, unbuffered, traces of methanol / DMSO [2] [log10] | log partition dichloromethane / HPLC water, unbuffered, traces of methanol / DMSO [2] [log10] | log partition n-hexane / HPLC water, unbuffered, traces of methanol / DMSO [2] [log10] | log partition n-octane / HPLC water, unbuffered, traces of methanol / DMSO [2] [log10] | log partition n-undecane / HPLC water, unbuffered, traces of methanol / DMSO [2] [log10] | log partition oleylalcohol / HPLC water, unbuffered, traces of methanol / DMSO [2] [log10] | log partition toluene / HPLC water, unbuffered, traces of methanol / DMSO [2] [log10] | SMILES | log partition 1-octanol / HPLC water, unbuffered, traces of methanol / DMSO [1] [log10] | log partition butyl acetate / HPLC water, unbuffered, traces of methanol / DMSO [1] [log10] | log partition chloroform / HPLC water, unbuffered, traces of methanol / DMSO [1] [log10] | log partition cyclohexane / HPLC water, unbuffered, traces of methanol / DMSO [1] [log10] | log partition dichloromethane / HPLC water, unbuffered, traces of methanol / DMSO [1] [log10] | log partition n-hexane / HPLC water, unbuffered, traces of methanol / DMSO [1] [log10] | log partition n-octane / HPLC water, unbuffered, traces of methanol / DMSO [1] [log10] | log partition n-undecane / HPLC water, unbuffered, traces of methanol / DMSO [1] [log10] | log partition oleylalcohol / HPLC water, unbuffered, traces of methanol / DMSO [1] [log10] | log partition toluene / HPLC water, unbuffered, traces of methanol / DMSO [1] [log10]
2.911 | 2.863 | 1.794 | 1.372 | 2.835 | 0.9138 | 0.8981 | 0.6241 | 2.582 | 2.848 | CCC(C)(CC)c1cc(NC(=O)c2c(OC)cccc2OC)on1 | 1.786 | 2.159 | 2.432 | 1.696 | 1.861 | 0.9529 | 1.176 | 1.012 | 2.115 | 2.04
1.192 | 0.997 | 0.5005 | 0.7696 | 1.312 | 0.8609 | 0.7922 | 0.7687 | 1.252 | 0.9027 | CN(C1CCCCC1)S(=O)(=O)c1ccccc1N | -0.8134 | 0.2235 | 0.4748 | -0.5397 | 0.1793 | -0.5682 | -0.5115 | -0.8537 | -0.9123 | -0.3194
1.814 | 2.093 | 1.499 | 0.0278 | 1.694 | -0.1668 | -0.1168 | -1.167 | 1.762 | 0.9569 | c1ccc2[nH]c(-c3cscn3)nc2c1 | 0.8781 | 0.7498 | 0.5738 | -1.051 | 0.733 | -0.9485 | -1.018 | -1.324 | 0.7334 | 0.2898
